The subject of one data set is DENV-2 16681 strain. Briefly: DENV-2 antiviral assay (eGFP-labeled virus, Vero cells). Type of data set: cell-based, Dengue virus. As to conditions: for pEC50: DENV-2 16681 eGFP, Vero cells, MOI 0.5, 3 days; for SI: SI=CC50/EC50, DENV-2 antiviral assay. Summed up: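 Vero cells (2500/well) pre-plated with compound (9-step 5-fold series), infected next day with eGFP-labeled DENV-2 16681 at MOI 0.5 in MEM with 2% FCS; 3 days at 37° C. eGFP fluorescence read at 488 nm; inhibition versus virus and cell controls, EC50 by linear interpolation.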

The nature of data set [1]: in vitro. The settings on record: African green monkey.
A further data set deals with DENV-1 strain TC974#666. The data set is described as follows: Tetravalent RT-qPCR assay, serotype 1. The format is cell-based, Dengue virus. The method, boiled down:
(§1)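 Vero cells (10000/well, MEM with 2% FCS) seeded on compound, incubated overnight, then infected with the given DENV serotype strain, diluted to give Cp ~22-24, for 3 days at 37 °C. Duplex RT-qPCR of viral 3′UTR and β-actin; EC50 by ΔΔCp normalised to β-actin, CC50 from β-actin Cp.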

The test system of the next data set is DENV-2 strain 16681. The data set is described as follows: Tetravalent RT-qPCR assay, serotype 2. Type of data set: cell-based, Dengue virus. The method, boiled down: as §1
The next data set concerns DENV-3 strain H87. The data set is described as follows: Tetravalent RT-qPCR assay, serotype 3. Type of data set: cell-based, Dengue virus. The method, boiled down: as §1
Background: In qPCR the cycle at which signal appears reflects the starting amount.

A further data set deals with DENV-4 strain H241. Briefly: Tetravalent RT-qPCR assay, serotype 4. Type of data set: cell-based, Dengue virus. The method, boiled down: as §1
Data set [2] in a line: in vitro. The format is cell-based. The settings on record: African green monkey, CC50. On the procedure:
(§2) The antiviral activity of the compounds of the invention was tested against DENV-1 strain TC974#666 (NCPV), DENV-2 strain 16681, DENV-3 strain H87 (NCPV) and DENV-4 strain H241 (NCPV) in a RT-qPCR assay. Therefore, Vero cells were infected with either DENV-1, or -2, or -3, or -4 in the presence or absence of test compounds. At day 3 post-infection, the cells were lysed and cell lysates were used to prepare cDNA of both a viral target (the 3′UTR of DENV; Table 2) and a cellular reference gene (β-actin, Table 2). Subsequently, a duplex real time PCR was performed on a Lightcycler480 instrument. The generated Cp value is inversely proportional to the amount of RNA expression of these targets. Inhibition of DENV replication by a test compound result in a shift of Cp's for the 3′UTR gene. On the other hand, if a test compound is toxic to the cells, a similar effect on β-actin expression will be observed. The comparative ΔΔCp method is used to calculate EC50, which is based on the relative gene expression of the target gene (3′UTR) normalized with the cellular housekeeping gene (β-actin). In addition, CC50 values are determined based on the Cp values acquired for the housekeeping gene β-actin.
(§3) The culture medium consisted of minimal essential medium supplemented with 2% of heat-inactivated fetal calf serum, 0.04% gentamycin (50 mg/mL) and 2 mM of L-glutamine. Vero cells, obtained from ECACC, were suspended in culture medium and 75 μL/well was added in 96-well plates (10000 cells/well), which already contain the antiviral compounds. […] In addition, each plate contains wells which are assigned as virus controls (containing cells and virus in the absence of compound) and cell controls (containing cells in the absence of virus and compound). Once the cells were added in the plates, the plates were incubated in a fully humidified incubator (37° C., 5% CO2) until the next day. Dengue viruses serotype-1, 2, 3 and 4 were diluted in order to obtain a Cp of ˜22-24 in the assay. Therefore, 25 μL of virus suspension was added to all the wells containing test compound and to the wells assigned as virus control. In parallel, 25 μL of culture medium was added to the cell controls. Next, the plates were incubated for 3 days in a fully humidified incubator (37° C., 5% CO2). After 3 days, the supernatant was removed from the wells and the cells were washed twice with ice-cold PBS (˜100 μL). The cell pellets within the 96-well plates were stored at −80° C. for at least 1 day. Next, RNA was extracted using the Cells-to-CT™ lysis kit, according to the manufacturer's guideline (Life Technologies). The cell lysates can be stored at −80° C. or immediately used in the reverse transcription step.
(§4) Using the LightCycler software and an in-house LIMS system, dose response curves for each compound were calculated and the half maximal effective concentration (EC50) and the half maximal cytotoxic concentration (CC50) were determined (Tables 5-8).

Data set [3] has as its system Vero cells. The data set is described as follows: in vitro. The format is cell-based. The settings on record: African green monkey, 3 days. On the procedure:
as §2, §3, §4

Data set [4] deals with Vero cells. As to conditions: African green monkey.
The next data set relates to DENV-2. The settings on record: analogous DENV-2 antiviral assay, reported activity; cited from earlier work.
[5] abbreviates: Dengue virus, DENV2, Vero, 72 h.

pEC50: −log10 of the molar value. Read-outs that look alike come from different tables or passages of the source. Bounds are passed on as bounds.

One may read the pEC50 as the negative decadic logarithm of the EC50, by convention in mol/L. What is called melting point is the temperature, or range, at which the solid turns liquid. As to `COc1cc(NC(C(=O)c2c[nH]c3cc(OC)c(Cl)cc23)c2ccc(F)cc2OC)cc(OCCO)c1` (racemic) [Compound 2, 1-(5-chloro-6-methoxy-1H-indol-3-yl)-2-(4-fluoro-2-methoxyphenyl)-2-((3-(2-hydroxyethoxy)-5-methoxyphenyl)amino)ethanone], the melting point came out at 210 °C. This molecule also had a pEC50 in the data set with DENV-2 16681 strain (setting [5]) of 8.82. This molecule also showed an SI in the data set on DENV-2 16681 strain of 4410. In addition, the CC50 in the data set “in vitro [1]” was 6.7 µM.

In the case of `COc1cc(NC(C(=O)c2c[nH]c3cc(F)c(C)cc23)c2ccc(F)cc2OC)cc(OCCO)c1` (racemic) [Compound 3, 2-(4-fluoro-2-methoxyphenyl)-1-(6-fluoro-5-methyl-1H-indol-3-yl)-2-((3-(2-hydroxyethoxy)-5-methoxyphenyl)amino)ethanone], the melting point is 197 °C. In addition, in the data set with DENV-2 16681 strain (setting [5]), the pEC50 was 8.46. In the data set on DENV-2 16681 strain, this molecule had an SI of 1140. Further, in the data set “in vitro [1]”, the CC50 was found to be 4 µM.

Molecule `COc1cc(NC(C(=O)c2c[nH]c3ccc(C)cc23)c2ccc(F)cc2OC)cc(OCCO)c1` (racemic) [Compound 5, 2-(4-fluoro-2-methoxyphenyl)-2-((3-(2-hydroxyethoxy)-5-methoxyphenyl)amino)-1-(5-methyl-1H-indol-3-yl)ethanone] gave a melting point of 199 °C. Moreover, the negative logarithm of the EC50 (pEC50) in the data set on DENV-2 16681 strain (setting [5]) was 8.32. The same molecule registered an SI with DENV-2 16681 strain of 3190. In the data set “in vitro [1]”, this molecule had a CC50 of 14 µM.

The molecule `COc1cc(NC(C(=O)c2c[nH]c3cc(F)c(C)cc23)c2ccc(Cl)cc2OC)cc(OCCO)c1` (racemic) [Compound 9, 2-(4-chloro-2-methoxyphenyl)-1-(6-fluoro-5-methyl-1H-indol-3-yl)-2-((3-(2-hydroxyethoxy)-5-methoxyphenyl)amino)ethanone] displayed a melting point of 177 °C. This molecule also had a negative logarithm of the EC50 (pEC50) with DENV-2 16681 strain (setting [5]) of 8.92. Also, in the data set on DENV-2 16681 strain, the SI amounted to 2480. Further, the CC50 in “in vitro [1]” is 3.1 µM.

With `COc1cc(NC(C(=O)c2c[nH]c3cc(OC)c(C)c(F)c23)c2ccc(Cl)cc2OC)cc(OCCO)c1` (single isomer, unassigned) [Compound 12B], the negative logarithm of the EC50 (pEC50) in the data set with DENV-2 16681 strain was 9.59; with DENV-1 strain TC974#666 (Dengue virus, DENV1, Vero, 72 h, RT-qPCR serotype 1 TC974#666, Protocol A, Vero cells, day 3, read-out: EC50), 8.31; in the data set on DENV-2 strain 16681 (Dengue virus, DENV2, Vero, 72 h, RT-qPCR serotype 2 16681, Protocol A, Vero cells, day 3) it was 9.60; with DENV-3 strain H87 (Dengue virus, DENV3, Vero, 72 h, RT-qPCR serotype 3 H87, Protocol A, Vero cells, day 3, read-out: EC50), 7.70; in the data set on DENV-4 strain H241 (Dengue virus, DENV4, Vero, 72 h, RT-qPCR serotype 4 H241, Protocol A, Vero cells, day 3), 6.74. The SI in the data set with DENV-2 16681 strain is recorded as over 48400; with DENV-1 strain TC974#666 (RT-qPCR serotype 1 TC974#666) it was over 508; with DENV-2 strain 16681 (RT-qPCR serotype 2 16681) it was over 12200; with DENV-3 strain H87 (RT-qPCR serotype 3 H87), over 106; with DENV-4 strain H241 (RT-qPCR serotype 4 H241), over 15. This molecule also registered a CC50 at 3 days in the data set “in vitro [2]” of over 2.2 µM. Moreover, the CC50 is over 2.5 µM in the data set with Vero cells [3] and 4.6 µM in the data set with Vero cells [4].

As to `COc1cc(NC(C(=O)c2c[nH]c3ccccc23)c2ccc(F)cc2)cc(OCCO)c1` (stereo not shown) [(350) of WO-2013/045516], in the data set with DENV-2, the pEC50 is 8.00 and the SI is listed as 3462.

These data come from patent publication US10730884B2, “Substituted indole compound derivatives as dengue viral replication inhibitors” (Janssen Pharmaceuticals, Inc., priority 2016, dated 2020).
